Measurements taken from patent US5444042A, “Method of treatment of neurodegeneration with calpain inhibitors” (Cortex Pharmaceuticals, priority 1994, dated 1995).
“Also recorded” adds a separate entry of the source. Like-named read-outs stand apart in the source and are kept apart here. Where a SMILES comes first, the peptide text is derived from it. The star is where a group is joined. Boc = CC(C)(C)OC(=O)*; CH2Cl = ClC*

Key:
[1] = test system: Calpain in crude brain extracts; assay: Ca2+-stimulated spectrin proteolysis in crude brain extracts (Example 2); format: biochemical; conditions: for inhibition of spectrin proteolysis in crude brain extracts: 100 μM
Summary of the method: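 Brain tissue was homogenized in 10 mM Tris pH 7.4, 0.32 M sucrose, 1 mM EGTA and 1 mM DTT, and nuclei and debris were removed. Calpain activity was scored as Ca^2+-stimulated proteolysis of endogenous spectrin.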

Calpain within platelets = assay: Platelet membrane permeation assay, spectrin proteolysis (Examples 4A, 4B); format: cell-based, rat; conditions: for inhibition of Calpain within platelets: 100 μM, A23187 1 μM; for IC50: concentration at which 50% of the Calpain activation present in controls occurred
Summary of the method: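 Rat (Sprague-Dawley) platelets at 10^7 cells/ml in HEPES buffer pH 7.4, preincubated 5 min with inhibitor, then 5 min with 1 μM A23187 to activate calpain. Spectrin proteolysis assessed by SDS-PAGE and anti-spectrin immunoblot, quantified by densitometry.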

[2] = biological target: T1, calpain II from rabbit muscle (Oryctolagus cuniculus, UniProt P06814); assay: Calpain II Ki (Table 1B(i)); format: biochemical
T1 sequence (P06814 1-422): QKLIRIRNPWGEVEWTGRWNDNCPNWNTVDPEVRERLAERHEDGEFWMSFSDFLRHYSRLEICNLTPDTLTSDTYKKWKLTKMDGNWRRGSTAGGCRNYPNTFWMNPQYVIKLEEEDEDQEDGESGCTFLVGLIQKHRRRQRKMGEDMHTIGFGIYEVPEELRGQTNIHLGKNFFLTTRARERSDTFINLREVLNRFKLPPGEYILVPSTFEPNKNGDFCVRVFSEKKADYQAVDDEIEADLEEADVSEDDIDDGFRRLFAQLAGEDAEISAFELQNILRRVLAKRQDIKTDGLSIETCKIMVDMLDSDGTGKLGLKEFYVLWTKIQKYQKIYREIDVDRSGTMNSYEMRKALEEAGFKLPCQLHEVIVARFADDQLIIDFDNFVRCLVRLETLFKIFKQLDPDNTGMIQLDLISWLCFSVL
T1 sequence (P06813 1-266 partner): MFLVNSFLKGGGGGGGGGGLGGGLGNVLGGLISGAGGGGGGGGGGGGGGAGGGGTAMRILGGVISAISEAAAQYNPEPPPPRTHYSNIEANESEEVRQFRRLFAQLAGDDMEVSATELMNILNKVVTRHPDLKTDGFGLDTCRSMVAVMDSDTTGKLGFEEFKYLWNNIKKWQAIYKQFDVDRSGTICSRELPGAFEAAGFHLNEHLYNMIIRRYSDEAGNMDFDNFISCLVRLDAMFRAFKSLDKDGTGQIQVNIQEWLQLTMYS
Description: The Peptide Keto-Compounds are reversible inhibitors of Calpains and other thiol proteases. […] Cathepsin B from bovine spleen was assayed using Z-[…]-nitrophenylphosphate as substrate. […] The Ki value for the inhibition of Calpains and cathepsin B by several Peptide Keto-Compounds are shown in μM (micromolar). The values for leupeptin, which is commercially available from Calbiochem of La Jolla, Calif., are shown for comparison.

[3] = Suc-Leu-Tyr-amidomethylcoumarin, HEPES pH 7.2, read-out: Ki Calpain II

Compound	inhibition of spectrin proteolysis in crude brain extracts [1]	inhibition of Calpain within platelets (Calpain within platelets)	Ki [2, 3]	IC50 (Calpain within platelets)	Ki [2]	inhibition in the system of Example 2 ([1]; concentration not given)	effect on intracellular (platelet) Calpain (Calpain within platelets; concentration not given)
CCC(NC(=O)[C@@H]1CCCN1C(=O)[C@H](C)NC(=O)[C@H](C)NC(=O)CCC(=O)OC)C(=O)C(=O)OC (mixture of isomers) [MeO-Suc-Ala-Ala-Pro-Abu-COOMe, MeO-Suc-Ala-Ala-Pro-DL-Abu-CO2 Me]	significant inhibition	significant inhibition	–	–	–	–	–
CCOC(=O)C(=O)C(CC)NC(=O)[C@H](C)NC(=O)[C@H](C)NC(=O)OCc1ccccc1 (mixture of isomers) [Z-Ala-Ala-DL-Abu-COOEt, Z-Ala-Ala-DL-Abu-CO2 Et]	significant inhibition	significant inhibition	200 µM	–	–	–	–
CCOC(=O)C(=O)[C@H](CC)NC(=O)[C@H](CC(C)C)NC(=O)OCc1ccccc1 (racemic) [Z-Leu-Abu-COOEt, Z-Leu-DL-Abu-COOEt]	significant inhibition	significant inhibition	0.4 µM	42 µM	–	–	–
CCCC(NC(=O)[C@H](CC(C)C)NC(=O)OCc1ccccc1)C(=O)C(=O)OCC (mixture of isomers) [Z-Leu-Nva-COOEt, Z-Leu-DL-Nva-COOEt]	significant inhibition	significant inhibition	1.2 µM	40 µM	–	–	–
CC(C)CC(NC(=O)CNC(=O)OC(C)(C)C)C(=O)NC(Cc1ccccc1)C(=O)CCl (stereo not drawn) [Boc-Gly-Leu-Phe-CH2 Cl] (Boc-Gly-Leu-Phe-CH2Cl; configuration not given here)	significant inhibition	significant inhibition	–	–	–	–	–
N=C(N)SCCCOc1oc(=O)c2ccccc2c1Cl [CiTprOIC, 4-chloro-3-(3-isothiureidopropoxy)isocoumarin]	significant inhibition	significant inhibition	–	–	–	–	–
CC(=O)N[C@@H](CC(C)C)C(=O)N[C@@H](CC(C)C)C(=O)N[C@H](C=O)CCCNC(=N)N [Leupeptin, Ac-Leu-Leu-Arg-H, reference compound]	–	–	–	–	0.43 µM	showed inhibition	little effect; also recorded: failed to exhibit Calpain inhibitory activity
N=C(N)SCCCOc1oc(=O)c2cc(N)ccc2c1Cl [NH2 -CiTPrOIC (ACITIC), 7-amino-4-chloro-3-(3-isothiureidopropoxy)isocoumarin]	significant inhibition	significant inhibition	–	–	–	–	–
CCCCC(NC(=O)C(CC(C)C)NC(=O)OCc1ccccc1)C(=O)C(=O)OCC (stereo not drawn) [Z-Leu-Nle-COOEt, Z-Leu-NLeu-CO2 Et]	significant inhibition	significant inhibition	0.18 µM	20 µM	–	–	–
CCOC(=O)C(=O)C(Cc1ccccc1)NC(=O)C(CC(C)C)NC(=O)OCc1ccccc1 (stereo not drawn) [Z-Leu-Phe-COOEt]	significant inhibition	significant inhibition	0.4 µM	42 µM	–	–	–
